Target: T1, Polθ (truncated Polθ-Hel protein containing the helicase domain 67-894) (Homo sapiens, UniProt O75417)
T1 construct: a truncated Polθ protein (Polθ-Hel containing the helicase domain (67-894))
Assay: Polθ ATPase assay (Biological Assay 1, ADP-Glo luminescence)
Type: biochemical
Conditions: Table B (Part B compounds); same assay as Biological Assay 1
Procedure: The Polθ ATPase assay was used to evaluate inhibitors of Polθ ATPase activity, in vitro. Experiments were performed using a truncated Polθ protein (Polθ-Hel containing the helicase domain (67-894), ATP and a DNA single strand Oligo (5′-CTGTCCTGCATGATG-3′) in the Polθ assay buffer (20 mM Tis-HCl (pH 8.8), MgCl2 5 mM, tween20 0.01%, NP40 0.01%, BSA 0.01%, DTT 1 mM). 2 μL of assay buffer containing Pole-Hel protein (0.5 nM) and DNA substrate (500 nM) was transferred into assay ready plates, containing 0.04 μL of compounds diluted in DMSO. After a 30 minutes incubation at 23° C. in the dark, the reaction was triggered by adding 2 μL of ATP (60 μM), in assay buffer. After 60 minutes at 23° C., 4 μl of ADP-Glo™ Reagent (Glo 1) was added followed by 40 minutes of incubation, then 8 μl of ADP-Glom kinase Detection Reagent (Glo 2) followed by 60 minutes of incubation at 23° C. Luminescence was then measured using Tecan F200 infinite plate reader. Raw data were analysed using GeneData to generate IC50 values.
The Polθ ATPase assay described in Biological Assay 1 above was used to evaluate inhibitors of Polθ ATPase activity for the compounds described in the Experimental Part B above, in vitro.

T1 sequence (O75417 67-894): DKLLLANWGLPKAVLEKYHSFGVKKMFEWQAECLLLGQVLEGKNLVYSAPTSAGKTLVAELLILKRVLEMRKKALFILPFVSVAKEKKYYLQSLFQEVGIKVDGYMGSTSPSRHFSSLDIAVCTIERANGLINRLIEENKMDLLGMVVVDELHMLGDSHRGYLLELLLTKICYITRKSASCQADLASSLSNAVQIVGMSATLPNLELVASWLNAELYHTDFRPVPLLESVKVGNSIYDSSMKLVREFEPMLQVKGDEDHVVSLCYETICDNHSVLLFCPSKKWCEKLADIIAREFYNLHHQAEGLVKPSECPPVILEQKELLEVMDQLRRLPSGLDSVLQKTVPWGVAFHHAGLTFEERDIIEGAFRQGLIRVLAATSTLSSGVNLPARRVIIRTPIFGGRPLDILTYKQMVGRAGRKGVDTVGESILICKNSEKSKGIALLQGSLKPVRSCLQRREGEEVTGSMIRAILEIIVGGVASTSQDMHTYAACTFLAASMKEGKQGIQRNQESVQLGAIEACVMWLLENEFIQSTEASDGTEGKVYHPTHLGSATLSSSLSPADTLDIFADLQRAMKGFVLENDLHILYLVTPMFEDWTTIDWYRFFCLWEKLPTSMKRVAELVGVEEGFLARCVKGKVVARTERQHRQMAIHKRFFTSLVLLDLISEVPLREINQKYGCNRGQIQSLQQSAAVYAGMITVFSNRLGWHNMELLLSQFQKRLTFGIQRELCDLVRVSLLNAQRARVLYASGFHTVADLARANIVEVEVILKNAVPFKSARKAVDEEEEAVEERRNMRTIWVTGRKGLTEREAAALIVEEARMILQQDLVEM

## COc1cnc(Cl)cc1-c1cn(C)c(=O)cc1C(=O)Nc1nc2cnc(N3CCC(O)CC3)nc2s1 [Example 125]
  IC50: < 100 nM

From patent US20240336628A1, “NOVEL COMPOUNDS, COMPOSITIONS, AND THERAPEUTIC USES THEREOF” (Breakpoint Therapeutics GmbH, priority 2023, published 2024)
